One data set relates to female NMRI mice. Description: Anorectic action: cumulative milk consumption after removal of feed for 24 hours. It counts as in vivo. To be noted: for cumulative milk consumption by treated animals: evaporated milk, monitored for 7 hours; for Reduction in cumulative milk consumption as % of the contol: vs control animals. As for the experimental part: The anorectic action was tested on female NMRI mice. After removal of feed for 24 hours, the preparation to be tested was administered intraperitoneally (ip) or by gavage (po). The animals were housed singly and, with free access to drinking water, they were offered evaporated milk 30 minutes after administration of the preparation. The consumption of evaporated milk was determined and the general behavior of the animals was monitored every half an hour for 7 hours. The measured milk consumption was compared to that of vehicle-treated control animals.

A word on the melting point: it is the temperature, or range, at which the solid turns liquid. Compound `CSC1Cc2cc(Cl)ccc2C1=O` (stereo not shown) [Example 1, 5-Chloro-2-methylsulfanylindan-1-one] displayed a melting point of 90 °C. In the data set on female NMRI mice (10 mg/kg ip), the “cumulative milk consumption by treated animals” value was 05/1.20 ml and the “Reduction in cumulative milk consumption as % of the contol” value (from here on “Reduction … as % of the contol”) is listed as 64%.
Regarding `CS(=O)(=O)C1Cc2cc(Cl)ccc2C1=O` (stereo not shown) [Example 2, 5-Chloro-2-methanesulfonylindan-1-one], in the data set with female NMRI mice (20 mg/kg ip), the “cumulative milk consumption by treated animals” value is 05/1.16 ml and the “Reduction … as % of the contol” value is 70%.
Take `O=C1c2ccc(Cl)cc2CC1Sc1ccccc1` (stereo not shown) [Example 3, 5-chloro-2-phenylsulfanylindan-1-one]: the melting point was found to be 89 °C.
On the same count and under the same terms, to `O=C1c2ccc(Cl)cc2CC1S(=O)(=O)c1ccccc1` (stereo not shown) [Example 4, 2-benzenesulfonyl-5-chloroindan-1-one] belongs 133 °C.
The compound `C[S+]([O-])C1Cc2cc(Cl)ccc2C1=O` (stereo not shown) [Example 9, 5-chloro-2-methanesulfinylindan-1-one] registered a melting point of 228.87 °C. Also, in the data set with female NMRI mice (50 mg/kg po), the “cumulative milk consumption by treated animals” value is reported as 05/1.16 ml and the “Reduction … as % of the contol” value turned out to be 73%.
